# Measured values taken from patent US20200222537A1, “BIOPHOTONIC COMPOSITIONS AND USES THEREOF” (KLOX TECHNOLOGIES LIMITED, priority 2016, published 2020).
# Several values for one entry are separate records, joined by “and”; a condition that tells them apart may be missing. Equal entries are not always repeated.
# Assays:
# [1] = Emission peak (Flex Station II); assay type: physicochemical
# Description: (§1) The compounds were dissolved in the solvents and at the concentrations indicated in Table 2 and the absorbance and emission peaks were measured (measured using a Flex Station II, Model 384 by Molecular Devices Comp.).
# [2] = Solubilization of chromophores in solvents; details: 1 M NaOH, aqueous buffer
# [3] = Absorbance peak (Flex Station II); assay type: physicochemical
# Description: as §1
smiles,measurement,setting,value
Cc1cc(O)c2c(=O)c3c(O)cc(O)c4c5c(O)cc(O)c6c(=O)c7c(O)cc(C)c8c1c2c(c34)c(c78)c65 [Hypericin],Emission peak (nm),"[1]; ex. 345 nm, liquid","nm, em. 700 nm"
same,Emission peak (nm),"[1]; ex. 460 nm, liquid","ex. 460 nm, em. 700"
same,Emission peak (nm),"[1]; ex. 620 nm, liquid",em. 700 nm (liquid);
same,solubility,[2],500 µg/mL
O=C(O)/C=C/c1ccc(O)c(O)c1 [Caffeic acid],Absorbance peak (nm),[3]; liquid,875 nm (liquid)
CCCCCCCCC[C@H](O)CC(=O)CCc1ccc(O)c(OC)c1 [10-Gingerol],Absorbance peak (nm),[3]; gel and liquid,300 nm (gel and
same,solubility,physchem; organic solvent or mixture,10000 µg/mL
O=c1oc2c(O)c(O)cc3c(=O)oc4c(O)c(O)cc1c4c23 [Ellagic acid],Absorbance peak (nm),[3]; gel,(liquid); 370 nm (gel)
same,Emission peak (nm),"[1]; ex. 370 nm, gel","ex. 370 nm, em. 736"
C[n+]1cc2c3c(ccc2c2ccc4cc5c(cc4c21)OCO5)OCO3.[Cl-] [Sanguinarine chloride hydrate],Emission peak (nm),"[1]; ex. 300 nm, liquid",em. 600 nm (liquid);
same,Emission peak (nm),"[1]; ex. 330 nm, gel","nm, em. 590 nm"
same,Emission peak (nm),"[1]; ex. 405 nm, liquid","ex. 405 nm, em. 600"
same,Emission peak (nm),"[1]; ex. 460 nm, gel","ex. 460 nm, em. 591"
same,Emission peak (nm),"[1]; ex. 460 nm, liquid","nm, em. 600 nm"
same,solubility,physchem; organic solvent or mixture,3330 µg/mL
COc1ccc2cc3[n+](cc2c1OC)CCc1cc2c(cc1-3)OCO2 [Berberine chloride hydrate],Emission peak (nm),"[1]; ex. 340 nm, gel","ex. 340 nm, em. 538"
same,Emission peak (nm),"[1]; ex. 430 nm, liquid","nm, em. 545 nm (liquid)"
same,Emission peak (nm),"[1]; ex. 460 nm, gel + liquid","ex. 460 nm, em. 540"
O=C(/C=C/C=C/c1ccc2c(c1)OCO2)N1CCCCC1 [Piperine],Absorbance peak (nm),[3]; medium not stated,344 nm
same,Emission peak (nm),"[1]; ex. 340 nm, medium not stated","nm, em. 443 nm"
same,Emission peak (nm),"[1]; ex. 460 nm, gel","ex. 460 nm, em. 634"
Oc1ccc(/C=C/c2cc(O)cc(O)c2)cc1 [Resveratrol],solubility,physchem; organic solvent or mixture,10000 µg/mL
O=C(OC[C@H]1O[C@@H](OC(=O)c2cc(O)c(O)c(OC(=O)c3cc(O)c(O)c(O)c3)c2)[C@H](OC(=O)c2cc(O)c(O)c(OC(=O)c3cc(O)c(O)c(O)c3)c2)[C@@H](OC(=O)c2cc(O)c(O)c(OC(=O)c3cc(O)c(O)c(O)c3)c2)[C@@H]1OC(=O)c1cc(O)c(O)c(OC(=O)c2cc(O)c(O)c(O)c2)c1)c1cc(O)c(O)c(OC(=O)c2cc(O)c(O)c(O)c2)c1 [Tannic acid],solubility,physchem; water,10000 µg/mL
O=C1C[C@@](O)(C(=O)O)C(C(=O)O)O1 (stereo partly drawn) [Garcinia acid],Absorbance peak (nm),[3]; gel and liquid,300 nm (gel and
same,solubility,physchem; organic solvent or mixture,10000 µg/mL
COc1cc(/C=C/C(=O)/C=C(O)/C=C/c2ccc(O)c(OC)c2)ccc1O [Curcumin],Absorbance peak (nm),[3]; medium not stated,440 nm
same,Emission peak (nm),"[1]; ex. 390 nm, liquid",em. 540 nm (liquid);
same,Emission peak (nm),"[1]; ex. 440 nm, gel","ex. 440 nm, em. 552"
same,Emission peak (nm),"[1]; ex. 460 nm, gel","ex. 460 nm, em. 555"
same,Emission peak (nm),"[1]; ex. 460 nm, liquid","nm, em. 544 nm"
same,solubility,physchem; organic solvent or mixture,5000 µg/mL
O=C1c2cccc(O)c2C(=O)c2c(O)cc(CO)cc21 [Aloe-emodin],Emission peak (nm),"[1]; ex. 460 nm, gel","nm, em. 600 nm"
same,Emission peak (nm),"[1]; ex. 460 nm, liquid","ex. 460 nm, em. 588"
same,solubility,physchem; organic solvent or mixture,10000 µg/mL
C/C=C1/[C@H](O[C@@H]2O[C@H](CO)[C@@H](O)[C@H](O)[C@H]2O)OC=C(C(=O)OC)[C@H]1CC(=O)OCCc1ccc(O)c(O)c1 [Oleuropein],Absorbance peak (nm),[3]; gel and liquid,325 nm (gel and
same,solubility,physchem; organic solvent or mixture,10000 µg/mL
CC(C)=CCC/C(C)=C/C=C/C(C)=C/C=C/C(C)=C/C=C/C=C(C)/C=C/C=C(C)/C=C/C=C(\C)CCC=C(C)C [Lycopene],Absorbance peak (nm),[3]; gel,490 nm
same,solubility,physchem; organic solvent or mixture,1000 µg/mL
CC1=C(/C=C/C(C)=C/C=C/C(C)=C/C=C/C=C(C)/C=C/C=C(C)/C=C/C2=C(C)C[C@@H](O)CC2(C)C)C(C)(C)C[C@H](O)C1 [Zeaxanthin],Absorbance peak (nm),[3]; gel and liquid,465 nm (gel and
same,Emission peak (nm),"[1]; ex. 300 nm, gel",415 nm and 432 nm and 740 nm and 817 nm
same,solubility,physchem; organic solvent or mixture,2000 µg/mL
"O=C(/C=C/c1ccc(O)c(O)c1)OCCc1ccccc1 [Caffeic acid phenethyl ester (CAPE), Caffeic acid phenethyl ester]",solubility,physchem; organic solvent or mixture,10000 µg/mL
